Data taken from US8536157B2, “Non-steroidal compounds” (The University of Melbourne, priority 2007, dated 2013).

Columns and labels:
[1] = test system: PGE2 release in U937 cells; experiment: PGE2 release from PMA-treated U937 cells (radioimmunoassay); format: cell-based, human; conditions: Homo sapiens, U-937, 24 h, 24 hour incubation, read-out: Effects on PGE2 release in U937 cells at 1 μM as a % of PMA control, mean
Method: The U937 monocytic cell line (available from the ATCC, USA) is commonly used to evaluate anti-inflammatory agents. In the present experiment, U937 cells maintained in culture in a medium comprising RPMI containing (5% FCS v/v; supplemented with 100 U/ml penicillin, and […] streptomycin) were treated with phorbol myristate acetate (10 nM) then immediately dispersed into a 24 well cell culture plate at a concentration of 2×10^5 cells per ml in a volume of 1 ml per well. After 24 hours by which time the cells had adhered to the plastic substrate, they were treated with one of several analogues or with the vehicle of 0.1% DMSO. After a further 24 hour incubation period the supernatant was harvested and the content of prostaglandin E2 was measured by a radioimmunoassay, as described by Vlahos, R., & Stewart, A. G. (1999). (“Interleukin-1α and Tumour necrosis factor-α inhibit airway smooth muscle DNA synthesis by a glucocorticoid-sensitive induction of cyclo-oxygenase-2. British Journal of Pharmacology, 126, 1315-1324). […] The data in the table are presented as percentage of the control level of Prostaglandin E2.
Several analogues were evaluated for their actions on the release of PGE2 from the human U937macrophage cell line. Cells were stimulated by exposure to PMA 1 nM and after a period allowed for adherence of cells to the plastic culture dish, the cell were treated with one of several CP analogues. […] The chemical structures of CP1-56 and CP1-58 are as follows: […]

[2] = target: proteins in rat lung membranes; experiment: Competitive binding assay with [3H]-CP2117 on rat lung membranes (RLM); conditions: given as Log IC50 (negative values); displacement of 10 nM [3H]-CP2117, overnight at 4° C.; ND- not detected
[3] = test system: PGE2 release in J774 macrophages; experiment: PGE2 release from LPS/IFNγ-stimulated J774 macrophages (radioimmunoassay); format: cell-based, murine; conditions: Mus musculus, J774, 24 h, 30 min pre-treatment, 24 hour incubation; for activity at 1 µM: read-out: Effects on PGE2 release in J774 macrophages at 1 μM as a % of LPS/IFNγ control, mean; for activity at 10 µM: l0 μM, read-out: Effects on PGE2 release in J774 macrophages at l0 μM as a % of LPS/IFNγ control, mean

| Structure (SMILES) | Log IC50 RLM binding [2] | melting point [°C] | activity at 1 µM [1] [%] | activity at 1 µM [3] [%] | activity at 10 µM [3] [%] |
| --- | --- | --- | --- | --- | --- |
| COc1cc2c(cc1O)/C(=N/OCc1ccc([N+](=O)[O-])cc1)C(C)(C)CC2 [AA-1-39-2] | −6.19 |  | 100 |  |  |
| C/C(=N\OCc1ccc2nonc2c1)c1ccccc1 [AA-1-53] |  |  | 91 |  |  |
| COc1ccc(/C(C)=N/OCc2ccc3nonc3c2)cc1 [AA-1-54] |  |  | 76 |  |  |
| C/C(=N\OCc1ccc2nonc2c1)c1ccc2c(c1)OCO2 [AA-1-55] |  |  | 90 |  |  |
| COc1cc(/C(C)=N/OCc2ccc3nonc3c2)ccc1O [AA-1-56] | −6.21 |  | 16 |  |  |
| COc1ccc(/C(C)=N/OCc2ccc3nonc3c2)cc1OC [AA-1-58] | −4.74 |  | 111 |  |  |
| COc1cc(/C(C)=N/OCc2ccc3nonc3c2)ccc1OS(N)(=O)=O [AA-1-78] | −4.87 |  | 19 |  |  |
| COc1cc2c(cc1OS(N)(=O)=O)C(=NOCc1ccc([N+](=O)[O-])cc1)C(C)(C)CC2 [AA-1-79] | −4.58 |  | 113 |  |  |
| COc1ccc(/C(C)=N/OCc2ccc3nonc3c2)cc1O [AA-1-80] | −6.33 |  | 38 |  |  |
| COc1ccc(C(C)=NOCc2ccc3nonc3c2)cc1OS(N)(=O)=O [AA-1-81] | −5.25 |  | 43 |  |  |
| COc1cc(-c2ccc(NC(=O)OC(C)(C)C)cc2)c(/C(C)=N/OCc2ccc([N+](=O)[O-])cc2)cc1O [CP30342, (E)-2′-(4-tert-Butoxycarbonylaminophenyl)-5′-hydroxy-4′-methoxyacetophenone O-4-Nitrobenzyl Oxime] | −6.79 | 91 to 96.8 |  | 19 | 0 |
| COc1cc([C@H]2CC[C@](C)(CO)CC2)c(C(C)=NOCc2ccc([N+](=O)[O-])cc2)cc1O [CP30450A, 2′-(4-hydroxymethyl-4-methyl)cyclohexyl-5′-hydroxy-4′-methoxyacetophenone O-4-Nitrobenzyl Oxime] | −5.81 |  | 80 |  |  |

Second part, led by results:

| Log IC50 RLM binding [2] | melting point [°C] | Structure (SMILES) | activity at 1 µM [1] [%] | activity at 1 µM [3] [%] | activity at 10 µM [3] [%] |
| --- | --- | --- | --- | --- | --- |
|  | 88.2 to 89.5 | COc1ccc(/C(C)=N/OCc2ccc([N+](=O)[O-])cc2)cc1 [CP30253, (E)-4′-Methoxyacetophenone O-4-Nitrobenzyl Oxime] |  | 47 | 4 |
| −6.65 | 118.4 to 121.1 | COc1cc(/C(C)=N/OCc2ccc([N+](=O)[O-])cc2)ccc1O [CP30261, (E)-4′-Hydroxy-3′-methoxyacetophenone O-4-Nitrobenzyl Oxime] |  |  |  |
| −6.46 | 97.7 to 98.7 | COC(=O)c1ccc(CO/N=C(\C)c2ccc(OC)c(O)c2)cc1 [CP30263, (E)-3′-Hydroxy-4′-methoxyacetophenone O-4-Carbomethoxybenzyl Oxime] |  |  |  |
| −6.86 | 47.7 to 50.2 | COc1ccc(/C(C)=N/OCc2cc(F)cc(F)c2)cc1O [CP30274, (E)-3′-Hydroxy-4′-methoxyacetophenone O-3,5-Difluorobenzyl Oxime] |  |  |  |
| −6.05 | 125.9 to 129.7 | COc1ccc(/C(C)=N/OCc2ccc(C#N)cc2)cc1O [CP30283, (E)-3′-Hydroxy-4′-methoxyacetophenone O-4-Cyanobenzyl Oxime] |  |  |  |
| −6.33 | 105.9 to 108.7 | COc1cc(-c2ccc(C)cc2)c(/C(C)=N/OCc2ccc([N+](=O)[O-])cc2)cc1O [CP30345, (E)-5′-Hydroxy-4′-methoxy-2′-(4-methylphenyl)acetophenone O-4-Nitrobenzyl Oxime] |  | 76 | 1 |
| −5.99 | 111.5 to 114.1 | COc1cc(-c2ccc(C(F)(F)F)cc2)c(/C(C)=N/OCc2ccc([N+](=O)[O-])cc2)cc1O [CP30346, (E)-2′-(4-Trifluoromethylphenyl)-5′-hydroxy-4′-methoxyacetophenone O-4-Nitrobenzyl Oxime] |  | 78 | 34 |
